This note sets out measurements from US20240050428A1 (Cullgen (Shanghai), Inc., priority 2020, published 2024).

Like-named read-outs stand apart in the source and are kept apart here.

For one assay, the system named is MV4;11 cells. As to the kind of experiment: Cell viability assay (CellTiter-Glo) in MV4;11 cells, alone or with gilteritinib. The format is cell-based. To be noted: MV4;11 cells, three days, CellTiter-Glo, read-out: MV4.
The next assay has as its system MOLM-13 cells. As to the kind of experiment: Cell viability assay (CellTiter-Glo) in MOLM-13 cells, alone or with gilteritinib. Type of assay: cell-based. To be noted: MOLM-13 cells, three days, CellTiter-Glo.
[1] abbreviates: Homo sapiens, MV4-11, 72 h, compound alone (without gilteritinib), 11 IC50.
Where [2] appears, read: Homo sapiens, MV4-11, 72 h, with gilteritinib 10 nM, 11 IC50 gilteritinib.
[3] abbreviates: Homo sapiens, MOLM-13, 72 h, compound alone (without gilteritinib), read-out: MOLM-13 IC50.
Setting [4] is: Homo sapiens, MOLM-13, 72 h, with gilteritinib 20 nM, read-out: MOLM-13 IC50 gilteritinib.
The mark [5] stands for this setting: Homo sapiens, MV4-11, 72 h, compound with gilteritinib 10 nM, 11 IC50 gilteritinib.
Where [6] appears, read: Homo sapiens, MOLM-13, 72 h, compound with gilteritinib 20 nM, read-out: MOLM-13 IC50 gilteritinib.

`C[C@@H]1CN(c2ccc3ncc(-c4cnn([C@H]5C[C@H](CCCNc6ccc7c(c6)C(=O)N(C6CCC(=O)NC6=O)C7=O)C5)c4)nc3c2)C[C@H](C)N1C` (stereo partly drawn) [GS-408, 2-(2,6-dioxopiperidin-3-yl)-5-((3-(trans-3-(4-(7-((3S,5R)-3,4,5-trimethylpiperazin-1-yl)quinoxalin-2-yl)-1H-pyrazol-1-yl)cyclobutyl)propyl)amino)isoindoline-1,3-dione]: the IC50 with MV4;11 cells (setting [1]) lay in the range of 100 to 1000 nM; in the assay with MV4;11 cells (setting [2]), 10 to 100 nM; in the assay on MOLM-13 cells (setting [3]), 100 to 1000 nM; in the assay with MOLM-13 cells (setting [4]), 10 to 100 nM.

For `CN1C2CCC1CN(c1ccc3ncc(-c4cnn([C@H]5C[C@H](CCCNc6ccc7c(c6)C(=O)N(C6CCC(=O)NC6=O)C7=O)C5)c4)nc3c1)C2` (stereo partly drawn) [GS-409, 2-(2,6-dioxopiperidin-3-yl)-5-((3-(trans-3-(4-(7-(8-methyl-3,8-diazabicyclo[3.2.1]octan-3-yl)quinoxalin-2-yl)-1H-pyrazol-1-yl)cyclobutyl)propyl)amino)isoindoline-1,3-dione], the IC50 with MV4;11 cells (setting [1]) is 10 to 100 nM; in the assay with MV4;11 cells (setting [2]) it was 10 to 100 nM; with MOLM-13 cells (setting [3]), 10 to 100 nM; in the assay with MOLM-13 cells (setting [4]), less than 10 nM.

Turning to `O=C1CCC(N2C(=O)c3ccc(NCCC[C@H]4C[C@H](n5cc(-c6cnc7ccc(N8C[C@H]9C[C@@H]8CO9)cc7n6)cn5)C4)cc3C2=O)C(=O)N1` (stereo partly drawn) [GS-410, 5-((3-(trans-3-(4-(7-((1R,4R)-2-oxa-5-azabicyclo[2.2.1]heptan-5-yl)quinoxalin-2-yl)-1H-pyrazol-1-yl)cyclobutyl)propyl)amino)-2-(2,6-dioxopiperidin-3-yl)isoindoline-1,3-dione], the IC50 was 10 to 100 nM with MV4;11 cells (setting [1]), less than 10 nM with MV4;11 cells (setting [2]), 10 to 100 nM in the assay with MOLM-13 cells (setting [3]) and less than 10 nM with MOLM-13 cells (setting [4]).

For `CN1C[C@H]2C[C@@H]1CN2c1ccc2ncc(-c3cnn([C@H]4C[C@H](CCCNc5ccc6c(c5)C(=O)N(C5CCC(=O)NC5=O)C6=O)C4)c3)nc2c1` (stereo partly drawn) [GS-411, 2-(2,6-dioxopiperidin-3-yl)-5-((3-(trans-3-(4-(7-((1R,4R)-5-methyl-2,5-diazabicyclo[2.2.1]heptan-2-yl)quinoxalin-2-yl)-1H-pyrazol-1-yl)cyclobutyl)propyl)amino)isoindoline-1,3-dione], the IC50 in the assay with MV4;11 cells (setting [1]) was 10 to 100 nM; in the assay on MV4;11 cells (setting [2]) it was less than 10 nM; in the assay with MOLM-13 cells (setting [3]), greater than 1000 nM; with MOLM-13 cells (setting [4]), less than 10 nM.

Turning to `CN1CCN(c2ccc3nc(-c4cnn([C@H]5C[C@@H](CCCNc6ccc7c(c6)C(=O)N(C6CCC(=O)NC6=O)C7=O)C5)c4)cnc3c2)CC1` (stereo partly drawn) [GS-412, 2-(2,6-dioxopiperidin-3-yl)-5-((3-(cis-3-(4-(6-(4-methylpiperazin-1-yl)quinoxalin-2-yl)-1H-pyrazol-1-yl)cyclobutyl)propyl)amino)isoindoline-1,3-dione], the IC50 in the assay on MV4;11 cells (setting [1]) was in the range of 100 to 1000 nM; in the assay with MV4;11 cells (setting [5]) it was 10 to 100 nM; in the assay with MOLM-13 cells (setting [3]), 100 to 1000 nM; with MOLM-13 cells (setting [6]) it was 10 to 100 nM.

`CN1CCN(c2cccc(-c3cnn([C@H]4C[C@H](CCCNc5ccc6c(c5)C(=O)N(C5CCC(=O)NC5=O)C6=O)C4)c3)n2)CC1` (stereo partly drawn) [GS-413, 2-(2,6-dioxopiperidin-3-yl)-5-((3-(trans-3-(4-(6-(4-methylpiperazin-1-yl)pyridin-2-yl)-1H-pyrazol-1-yl)cyclobutyl)propyl)amino)isoindoline-1,3-dione]: the IC50 was 100 to 1000 nM with MV4;11 cells (setting [5]); 100 to 1000 nM in the assay on MV4;11 cells (compound alone (without gilteritinib), 11 IC50); 10 to 100 nM with MOLM-13 cells (setting [6]); greater than 1000 nM with MOLM-13 cells (compound alone (without gilteritinib), read-out: MOLM-13 IC50).

As to `CN1CCN(c2ccc3ncc(-c4cnn([C@H]5C[C@H](CCCNc6ccc7c(c6)C(=O)N(C6CCC(=O)NC6=O)C7=O)C5)c4)nc3c2)CC12CC2` (stereo partly drawn) [GS-414, 2-(2,6-dioxopiperidin-3-yl)-5-((3-(trans-3-(4-(7-(4-methyl-4,7-diazaspiro[2.5]octan-7-yl)quinoxalin-2-yl)-1H-pyrazol-1-yl)cyclobutyl)propyl)amino)isoindoline-1,3-dione], the IC50 with MV4;11 cells (setting [1]) lay in the range of 100 to 1000 nM; in the assay on MV4;11 cells (setting [5]), 10 to 100 nM; in the assay with MOLM-13 cells (setting [3]), 100 to 1000 nM; in the assay on MOLM-13 cells (setting [6]), 10 to 100 nM.

For `O=C1CCC(N2C(=O)c3ccc(NCCC[C@H]4C[C@H](n5cc(-c6cnc7ccc(N8C[C@H]9C[C@@H]8CN9)cc7n6)cn5)C4)cc3C2=O)C(=O)N1` (stereo partly drawn) [GS-415, 5-((3-(trans-3-(4-(7-((1R,4R)-2,5-diazabicyclo[2.2.1]heptan-2-yl)quinoxalin-2-yl)-1H-pyrazol-1-yl)cyclobutyl)propyl)amino)-2-(2,6-dioxopiperidin-3-yl)isoindoline-1,3-dione], the IC50 in the assay on MV4;11 cells (setting [1]), in the assay with MV4;11 cells (setting [5]), in the assay with MOLM-13 cells (setting [3]) and in the assay with MOLM-13 cells (setting [6]) was greater than 1000 nM throughout.

With `CN1CCN(c2cccc(-c3cnn([C@H]4C[C@H](CNc5ccc6c(c5)C(=O)N(C5CCC(=O)NC5=O)C6=O)C4)c3)n2)CC1` (stereo partly drawn) [GS-416, 2-(2,6-dioxopiperidin-3-yl)-5-(((trans-3-(4-(6-(4-methylpiperazin-1-yl)pyridin-2-yl)-1H-pyrazol-1-yl)cyclobutyl)methyl)amino)isoindoline-1,3-dione], the IC50 is greater than 1000 nM in the assay with MV4;11 cells (setting [1]), greater than 1000 nM with MV4;11 cells (setting [5]), greater than 1000 nM with MOLM-13 cells (setting [3]) and 100 to 1000 nM with MOLM-13 cells (setting [6]).

Turning to `Cc1nn([C@H]2C[C@H](CCCNc3ccc4c(c3)C(=O)N(C3CCC(=O)NC3=O)C4=O)C2)cc1-c1cnc2c(N3CCN(C)CC3)cccc2n1` (stereo partly drawn) [GS-417, 2-(2,6-dioxopiperidin-3-yl)-5-((3-(trans-3-(3-methyl-4-(5-(4-methylpiperazin-1-yl)quinoxalin-2-yl)-1H-pyrazol-1-yl)cyclobutyl)propyl)amino)isoindoline-1,3-dione], the IC50 in the assay on MV4;11 cells (setting [1]) lay in the range of 100 to 1000 nM; in the assay with MV4;11 cells (setting [5]), 10 to 100 nM; with MOLM-13 cells (setting [3]), 100 to 1000 nM; in the assay with MOLM-13 cells (setting [6]), 10 to 100 nM.

Consider `Cc1nn([C@H]2C[C@H](CCCNc3ccc4c(c3)C(=O)N(C3CCC(=O)NC3=O)C4=O)C2)cc1-c1cnc2c(C3CCN(C)CC3)cccc2n1` (stereo partly drawn) [GS-418, 2-(2,6-dioxopiperidin-3-yl)-5-((3-(trans-3-(3-methyl-4-(5-(1-methylpiperidin-4-yl)quinoxalin-2-yl)-1H-pyrazol-1-yl)cyclobutyl)propyl)amino)isoindoline-1,3-dione], for which the IC50 in the assay on MV4;11 cells (setting [1]) is 10 to 100 nM; with MV4;11 cells (setting [5]) it was less than 10 nM; in the assay with MOLM-13 cells (setting [3]), 10 to 100 nM; with MOLM-13 cells (setting [6]), less than 10 nM.

`CN1CCC(c2ccc3nc(-c4cnn([C@H]5C[C@H](CCCNc6ccc7c(c6)C(=O)N(C6CCC(=O)NC6=O)C7=O)C5)c4)cnc3c2)CC1` (stereo partly drawn) [GS-419, 2-(2,6-dioxopiperidin-3-yl)-5-((3-(trans-3-(4-(6-(1-methylpiperidin-4-yl)quinoxalin-2-yl)-1H-pyrazol-1-yl)cyclobutyl)propyl)amino)isoindoline-1,3-dione]: the IC50 in the assay on MV4;11 cells (setting [1]) was 10 to 100 nM; with MV4;11 cells (setting [5]) it was 10 to 100 nM; in the assay on MOLM-13 cells (setting [3]), 10 to 100 nM; with MOLM-13 cells (setting [6]), less than 10 nM.

`O=C1CCC(N2C(=O)c3ccc(NCCC[C@H]4C[C@H](n5cc(-c6cnc7cc(C8CCOCC8)ccc7n6)cn5)C4)cc3C2=O)C(=O)N1` (stereo partly drawn) [GS-420, 2-(2,6-dioxopiperidin-3-yl)-5-((3-(trans-3-(4-(6-(tetrahydro-2H-pyran-4-yl)quinoxalin-2-yl)-1H-pyrazol-1-yl)cyclobutyl)propyl)amino)isoindoline-1,3-dione]: the IC50 lay within 100 to 1000 nM with MV4;11 cells (setting [1]), 10 to 100 nM in the assay on MV4;11 cells (setting [5]), 100 to 1000 nM with MOLM-13 cells (setting [3]) and 10 to 100 nM in the assay on MOLM-13 cells (setting [6]).

Turning to `O=C1CCC(N2C(=O)c3ccc(NCCC[C@H]4C[C@H](n5cc(-c6cnc7cc(C8CCNCC8)ccc7n6)cn5)C4)cc3C2=O)C(=O)N1` (stereo partly drawn) [GS-421, 2-(2,6-dioxopiperidin-3-yl)-5-((3-(trans-3-(4-(6-(piperidin-4-yl)quinoxalin-2-yl)-1H-pyrazol-1-yl)cyclobutyl)propyl)amino)isoindoline-1,3-dione], the IC50 with MV4;11 cells (setting [1]) is 10 to 100 nM; in the assay on MV4;11 cells (setting [5]), less than 10 nM; with MOLM-13 cells (setting [3]) it was 10 to 100 nM; with MOLM-13 cells (setting [6]), less than 10 nM.

As to `Cc1nn([C@H]2C[C@@H](CCCNc3ccc4c(c3)C(=O)N(C3CCC(=O)NC3=O)C4=O)C2)cc1-c1cnc2cc(N3CCOCC3)ccc2n1` (stereo partly drawn) [GS-422, 2-(2,6-dioxopiperidin-3-yl)-5-((3-(cis-3-(3-methyl-4-(6-morpholinoquinoxalin-2-yl)-1H-pyrazol-1-yl)cyclobutyl)propyl)amino)isoindoline-1,3-dione], the IC50 in the assay on MV4;11 cells (setting [1]) is 10 to 100 nM; with MV4;11 cells (setting [5]), less than 10 nM; with MOLM-13 cells (setting [3]), 10 to 100 nM; with MOLM-13 cells (setting [6]), less than 10 nM.

As to `CN1CCN(c2ccnc(-c3cnn([C@H]4C[C@H](CCCNc5ccc6c(c5)C(=O)N(C5CCC(=O)NC5=O)C6=O)C4)c3)n2)CC1` (stereo partly drawn) [GS-423, 2-(2,6-dioxopiperidin-3-yl)-5-((3-(trans-3-(4-(4-(4-methylpiperazin-1-yl)pyrimidin-2-yl)-1H-pyrazol-1-yl)cyclobutyl)propyl)amino)isoindoline-1,3-dione], the IC50 in the assay with MV4;11 cells (setting [1]) fell in the range of 100 to 1000 nM; with MV4;11 cells (setting [5]), 10 to 100 nM; in the assay on MOLM-13 cells (setting [3]), 100 to 1000 nM; in the assay with MOLM-13 cells (setting [6]) it was 10 to 100 nM.

Regarding `CN1CCN(c2ccnc(-c3cnn([C@H]4C[C@H](CNc5ccc6c(c5)C(=O)N(C5CCC(=O)NC5=O)C6=O)C4)c3)n2)CC1` (stereo partly drawn) [GS-424, 2-(2,6-dioxopiperidin-3-yl)-5-(((trans-3-(4-(4-(4-methylpiperazin-1-yl)pyrimidin-2-yl)-1H-pyrazol-1-yl)cyclobutyl)methyl)amino)isoindoline-1,3-dione], the IC50 in the assay on MV4;11 cells (setting [1]) was greater than 1000 nM; in the assay with MV4;11 cells (setting [5]) it was greater than 1000 nM; with MOLM-13 cells (setting [3]) it was 100 to 1000 nM; in the assay on MOLM-13 cells (setting [6]), 10 to 100 nM.
